{
  "source": "patent US20260133193A1",
  "about": "“COMPOSITIONS AND METHODS FOR TREATING INFLAMMATORY DISEASES” (University of Washington, priority 2018, published 2026)",
  "key": {"[1]": {"system": "Akt and S6", "experiment": "S6 and Akt phosphorylation by flow cytometry", "type": "cell-based, human", "details": "TLR7/8 activation with R848", "protocol": "We next asked which pathway(s) were acting upstream of NADPH oxidase to induce FcgRIIA shedding. […] Phosphorylation of Akt and S6 was determined by flow cytometry upon TLR7/8 activation. The experiment was repeated four times; combined results were compared using paired t test (pS6, P=0.042; pAkt, P=0.037). […] To confirm the role for PI3K in TLR-mediated activation of ROS and subsequent shedding of FcgRIIA, neutrophils were incubated with the PI3K inhibitor LY294002 prior to addition of TLR agonist. Blocking PI3K signaling abrogated TLR-mediated ROS generation, phosphorylation of ncf1 at S345 as well as shedding of FcgRIIA. Briefly, neutrophils, pre-treated with inhibitors of PI3K (LY294002, 10 μM) or NADPH oxidase (DPI, 25 μM), were activated with R848 and analyzed for ROS generation by flow cytometry using DHR123. […] Additionally, neutrophils were pre-treated with the PI3K inhibitor LY294002 (10 μM) and analyzed for R848-mediated shedding of FcgRIIA by flow cytometry. […]\nNeutrophils were activated by R848 for 15 minutes, fixed and permeabilized according to manufacturer's instructions (BioLegend), and incubated with a specific antibody recognizing phosphorylated S235/236 in S6 (Cell Signaling) or phosphorylated S473 in Akt (BD Biosciences) for 60 minutes. pS6 and pAkt levels were analyzed by flow cytometry and expressed as percent positive cells as compared to non-stimulated cells."}, "[2]": {"system": "ncf1 (p47 phox)", "experiment": "p47 phox (ncf1) S345 phosphorylation, phosphoproteomics and Western blot", "type": "cell-based, human", "details": "R848 activation", "protocol": "Another target of TLR7/8 stimulation was ncf1 (p47 phox). Ncf1 was phosphorylated at S345, a known target site involved in activation of the NADPH oxidase complex. […] The experiment was repeated three times; combined results were compared using paired t test (P=0.044). Neutrophils were incubated with R848 in the absence or presence of the PI3K inhibitor Ly294002 and analyzed for pS345 or total levels of p47 phox using Western Blot. The experiment was repeated four times; combined results were compared using paired t test (No stim, P=0.03; R848+LY294002, P=0.0011). […] Briefly, neutrophils were treated with inhibitors of NADPH oxidase prior to addition of R848 and analyzed for cell surface expression of FcgRIIA by flow cytometry. […] Briefly, neutrophils from healthy individuals (HV, n=18) and CGD patients (n=4) were stimulated with R848 and analyzed for FcgRIIA levels by flow cytometry. The data were analyzed using paired t test (HC, P<0.0001) and unpaired t test (HC vs CGD, P=0.0097). Neutrophils from healthy individuals (HV, n=13) and CGD patients (n=3) were activated by R848 and analyzed for CD66b expression by flow cytometry using paired t test (HC, P<0.0001; CGD, P=0.039). […] Briefly, neutrophils were activated with LPS or PAM3CSK4 in presence of DPI and analyzed for FcgRIIA levels by flow cytometry. […]"}},
  "data": [
    {"smiles": "CCOCc1nc2c(N)nc3ccccc3c2n1CC(C)(C)O", "note": "[R848]", "values": [
      {"measurement": "levels of phosphorylated Akt and S6", "setting": "[1]", "value": "induced increased levels of phosphorylated Akt and S6"},
      {"measurement": "phosphorylation of ncf1 (p47 phox) at S345", "setting": "[2]", "value": "phosphorylated (p47 phox) at S345"}
    ]}
  ]
}
